This is an account of results in article PMC10313624 (EJNMMI Radiopharmacy and Chemistry, 2023).

Like-named read-outs stand apart in the source and are kept apart here. Marks after values point to notes of the source that are not given here. Bridge positions count the residues as written; N and C are the ends. Square brackets hold non-standard residues; d marks the D form. Peptide text beside a SMILES is read from it. * marks the point of attachment. DOTA = O=C(O)CN1CCN(CC(=O)O)CCN(CC(=O)*)CCN(CC(=O)O)CC1; dPhe(4-NHCONH2) = NC(=O)Nc1ccc(C[C@@H](N)C(=O)O)cc1; Dihydroorotyl(S) = O=C1C[C@@H](C(=O)*)NC(=O)N1; Phe(4-Cl) = N[C@@H](Cc1ccc(Cl)cc1)C(=O)O; Phe(4-NH2) = Nc1ccc(C[C@H](N)C(=O)O)cc1

For series [1], the system named is SSTR2. Also noted: method as in Hou et al. [2022]; Zhu et al. [2020]; Fani et al. [2017]. To be noted: compared to DOTA-TATE; ref Hou et al. [2022]; Zhu et al. [2020]; Fani et al. [2017]; cited from earlier work.
Series [2] can be described thus: in vitro. It is filed as in vitro ADME. To be noted: mouse, serum. As for the experimental part: (§1) Haarlerbergweg, The Netherlands) (250 and 100 µL, respectively) at 37 °C. […] In mouse serum, the proteins were precipitated by adding an aliquot of the radiotracer to an equal volume of acetonitrile. The vial was vortexed vigorously and centrifuged for 20 min at 10,000 rpm. Stability studies were monitored by radio-HPLC (Additional file 1: Figs. S5 and S6).

Series [3] is classed as physicochemical. To be noted: 37 °C, radio-HPLC, n = 1. As for the experimental part:
as §1

The conditions of series [4]: in vivo; cited from earlier work.

For the compound `C[C@@H](O)[C@@H]1NC(=O)[C@H](CCCCN)NC(=O)[C@@H](Cc2ccc(NC(N)=O)cc2)NC(=O)[C@H](Cc2ccc(NC(=O)[C@@H]3CC(=O)NC(=O)N3)cc2)NC(=O)[C@H](NC(=O)[C@H](Cc2ccc(Cl)cc2)NC(=O)CN2CCN(CC(=O)O)CCN(CC(=O)O)CCN(CC(=O)O)CC2)CSSC[C@@H](C(=O)N[C@H](Cc2ccc(O)cc2)C(N)=O)NC1=O` [DOTA-JR11] ({DOTA}-[Phe(4-Cl)][dC][Phe(4-NH2)](Dihydroorotyl(S))[dPhe(4-NHCONH2)]KTC[dY]-NH2; disulfide 2-7; C-terminus assumed), in series [1], the “binding affinity to SSTR2” value is “lower binding affinity”.

For `C[C@@H](O)[C@@H]1NC(=O)[C@H](CCCCN)NC(=O)[C@@H](Cc2ccc(NC(N)=O)cc2)NC(=O)[C@H](Cc2ccc(NC(=O)[C@@H]3CC(=O)NC(=O)N3)cc2)NC(=O)[C@H](NC(=O)[C@H](Cc2ccc(Cl)cc2)NC(=O)CN2CCN(CC(=O)O)CCN(CC(=O)O)CCN(CC(=O)O)CC2)CSSC[C@@H](C(=O)N[C@H](Cc2ccc(O)cc2)C(N)=O)NC1=O` [[^177Lu]Lu-DOTA-JR11, metal not drawn] ({DOTA}-[Phe(4-Cl)][dC][Phe(4-NH2)](Dihydroorotyl(S))[dPhe(4-NHCONH2)]KTC[dY]-NH2; disulfide 2-7 (inferred); C-terminus assumed), in series [2], the share remaining – broadly, what is left of the initial amount, in per cent – at 2 h, 12 MBq/mL was found to be 94.5% and the share remaining at 24 h, 12 MBq/mL is 93.7%.

Turning to `C[C@@H](O)[C@@H]1NC(=O)[C@H](CCCCN)NC(=O)[C@@H](Cc2ccc(NC(N)=O)cc2)NC(=O)[C@H](Cc2ccc(NC(=O)[C@@H]3CC(=O)NC(=O)N3)cc2)NC(=O)[C@H](NC(=O)[C@H](Cc2ccc(Cl)cc2)NC(=O)CN2CCN(CC(=O)O)CCN(CC(=O)O)CCN(CC(=O)O)CC2)CSSC[C@@H](C(=O)N[C@H](Cc2ccc(O)cc2)C(N)=O)NC1=O` [[^177Lu]Lu-DOTA-JR11] [metal not drawn] ({DOTA}-[Phe(4-Cl)][dC][Phe(4-NH2)](Dihydroorotyl(S))[dPhe(4-NHCONH2)]KTC[dY]-NH2; disulfide 2-7 (inferred); C-terminus assumed), the “PBS (%) intact radiolabeled peptide” value in series [3] (2 h, 1.2 MBq in 200 µL PBS) was 96.5%; in series [3] (24 h, 1.2 MBq in 200 µL PBS), 96.8%. The hematologic toxicity entry in series [4] is on record as “severe grade 4 hematologic toxicity”.

Take `C[C@@H](O)[C@@H]1NC(=O)[C@H](CCCCN)NC(=O)[C@@H](Cc2ccc(NC(N)=O)cc2)NC(=O)[C@H](Cc2ccc(NC(=O)[C@@H]3CC(=O)NC(=O)N3)cc2)NC(=O)[C@H](NC(=O)[C@H](Cc2ccc(Cl)cc2)NC(=O)CN2CCN(CC(=O)O)CCN(CC(=O)O)CCN(CC(=O)O)CC2)CSSC[C@@H](C(=O)N[C@H](Cc2ccc(O)cc2)C(N)=O)NC1=O` [[^225Ac]Ac-DOTA-JR11, metal not drawn] ({DOTA}-[Phe(4-Cl)][dC][Phe(4-NH2)](Dihydroorotyl(S))[dPhe(4-NHCONH2)]KTC[dY]-NH2; disulfide 2-7 (inferred); C-terminus assumed): in series [2], the fraction remaining at 22 h, 200 kBq/mL was 80.9%; the amount remaining at 24 h, 200 kBq/mL was 81.4%; the fraction remaining at 27 h, 200 kBq/mL is 81%.

With `C[C@@H](O)[C@@H]1NC(=O)[C@H](CCCCN)NC(=O)[C@@H](Cc2ccc(NC(N)=O)cc2)NC(=O)[C@H](Cc2ccc(NC(=O)[C@@H]3CC(=O)NC(=O)N3)cc2)NC(=O)[C@H](NC(=O)[C@H](Cc2ccc(Cl)cc2)NC(=O)CN2CCN(CC(=O)O)CCN(CC(=O)O)CCN(CC(=O)O)CC2)CSSC[C@@H](C(=O)N[C@H](Cc2ccc(O)cc2)C(N)=O)NC1=O` [[^225Ac]Ac-DOTA-JR11] [metal not drawn] ({DOTA}-[Phe(4-Cl)][dC][Phe(4-NH2)](Dihydroorotyl(S))[dPhe(4-NHCONH2)]KTC[dY]-NH2; disulfide 2-7 (inferred); C-terminus assumed), the “PBS (%) intact radiolabeled peptide” value is 76.9^a % in series [3] (radiolabeling condition 1, 22 h, 50 kBq in 500 µL PBS); 56.6^b % in series [3] (radiolabeling condition 2 (without L-melatonin), 24 h, 50 kBq in 500 µL PBS); 81.0^c % in series [3] (radiolabeling condition 3 (with L-melatonin), 27 h, 50 kBq in 500 µL PBS).
